We go through 19 compounds from patent publication US11802133B2, “Heterocyclic compounds as monoacylglycerol lipase inhibitors” (Hoffmann-La Roche Inc., priority 2018, dated 2023).

In the experiment the target is MAGL (Homo sapiens (Human), UniProt Q99685). The experiment in a line: 2-AG assay: MAGL inhibitory activity by hydrolysis of 2-arachidonoylglycerol to arachidonic acid (mass spectrometry). In kind it is biochemical. The note with it: measured in 2-AG assay (footnote [b]); 8 μM 2-arachidonoylglycerol. As for the experimental part: Alternatively, compounds were profiled for MAGL inhibitory activity by determining the enzymatic activity by following the hydrolysis of the natural substrate 2-arachidonoylglycerol resulting in arachidonic acid, which can be followed by mass spectrometry. This assay is hereinafter abbreviated “2-AG assay”.
Chain of MAGL (Q99685 whole entry, species assumed): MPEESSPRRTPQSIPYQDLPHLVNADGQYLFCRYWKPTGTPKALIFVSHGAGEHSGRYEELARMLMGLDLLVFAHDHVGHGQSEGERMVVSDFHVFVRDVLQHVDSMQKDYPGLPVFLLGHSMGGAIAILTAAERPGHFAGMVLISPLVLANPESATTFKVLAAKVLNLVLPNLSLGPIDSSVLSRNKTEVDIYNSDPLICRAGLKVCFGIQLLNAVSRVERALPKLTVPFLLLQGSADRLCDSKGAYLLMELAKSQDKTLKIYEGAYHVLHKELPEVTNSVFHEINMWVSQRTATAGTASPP
A C18 SPE cartridge (G9205A) was used in an acetonitrile/water liquid setup. […] The activity of the compounds was calculated based on the ratio of intensities [arachidonic acid/d8-arachidonic acid].
For `CC1CN(c2cc(OC3CN(C(=O)N4CC[C@@H]5OCC(=O)N[C@@H]5C4)C3)ccc2C(F)(F)F)C1` [Example 266, (+)-(4aR,8aS)-6-[3-[3-(3-Methylazetidin-l-yl)-4-(trifluoromethyl)phenoxy]azetidine-1-carbonyl]-4,4a,5,7,8,8a-hexahydropyrido[4,3-b][l,4]oxazin-3-one], the half-maximal inhibitory concentration (IC50) (in general, the concentration needed to halve the response being measured) was determined as 18 nM. That is a double-digit nanomolar value.

With `O=C1CO[C@H]2CCN(C(=O)N3CC(Oc4ccc(C(F)(F)F)cc4)C3)C[C@H]2N1` [Example 118], the 50% inhibitory concentration (IC50) worked out at 132 nM.

In turn, `O=C1CO[C@H]2CCN(C(=O)N3CC(Oc4ccc(Cl)c(Br)c4)C3)C[C@H]2N1` [Example 264] showed a concentration for half-maximal inhibition (IC50) of 84 nM.

In turn, `O=C1CO[C@H]2CCN(C(=O)N3CC(OCc4ccc(C(F)(F)F)cc4C(F)(F)F)C3)C[C@H]2N1` [Example 249] gave an IC50 of 5 nM.

In turn, `Cc1cc(OC(F)(F)F)ccc1COC1CN(C(=O)N2CC[C@@H]3OCC(=O)N[C@@H]3C2)C1` [Example 251] had an IC50 of 5 nM.

`CC1(F)CN(c2cccc(OC3CN(C(=O)N4CC[C@@H]5OCC(=O)N[C@@H]5C4)C3)c2Cl)C1` [Example 273, (+)-(4aR,8aS)-6-[3-[2-Chloro-3-(3-fluoro-3-methyl-azetidin-1-yl)phenoxy]azetidine-1-carbonyl]-4,4a,5,7,8,8a-hexahydropyrido[4,3-b] [1,4] oxazin-3-one] gave an IC50 of 89 nM. Compared with the last compound, the IC50 is about 18-fold higher.

Turning to `Cc1c(COC2CN(C(=O)N3CC[C@@H]4OCC(=O)N[C@@H]4C3)C2C)cccc1C(F)(F)F` (stereo partly shown) [Example 253], the IC50 is 10 nM.

`Cc1cc(C(F)(F)F)ccc1COC1CN(C(=O)N2CC[C@@H]3OCC(=O)N[C@@H]3C2)C1` [Example 292] gave a half-inhibitory concentration (IC50) of 5 nM.

In the case of `O=C1CO[C@H]2CCN(C(=O)N3CC(Oc4ccc(C(F)(F)F)c(N5CC6(CCC6)C5)c4)C3)C[C@H]2N1` [Example 265, (+)-(4aR,8aS)-6-[3-[3-(2-Azaspiro[3.3]heptan-2-yl)-4-(trifluoromethyl)phenoxy]azetidine-1-carbonyl]-4,4a,5,7,8,8a-hexahydropyrido[4,3-b][1,4]oxazin-3-one], the IC50 was found to be 6 nM.

For `CC1C(Oc2cc(C(F)(F)F)ccc2Br)CCN1C(=O)N1CC[C@@H]2OCC(=O)N[C@@H]2C1` (stereo partly shown) [Example 246], half-maximal inhibition (IC50) required 1000 nM.

In turn, `O=C1CO[C@H]2CCN(C(=O)N3CC(COc4cc(C(F)(F)F)cc(F)n4)C3)C[C@H]2N1` [Example 222, (4aR,8aS)-6-[3-[[6-Fluoro-4-(trifluoromethyl)-2-pyridyl]oxymethyl]azetidine-1-carbonyl]-4,4a,5,7,8,8a-hexahydropyrido[4,3-b][1,4]oxazin-3-one] showed a concentration for half-maximal inhibition (IC50) of 143 nM.

In turn, `O=C1CO[C@H]2CCN(C(=O)N3CCC(Cc4ccc(C(F)(F)F)cc4F)CC3)C[C@H]2N1` [Example 92] gave an IC50 of 14 nM.

Consider `O=C1CO[C@H]2CCN(C(=O)N3CCC(Oc4cc(C(F)(F)F)ccc4F)C3)C[C@H]2N1` (stereo partly shown) [Example 286], for which half-maximal inhibition (IC50) was put at 128 nM. This IC50 lies about 9.1-fold higher than the previous one.

Turning to `Cc1ccc(COC2CN(C(=O)N3CC[C@@H]4OCC(=O)N[C@@H]4C3)C2)c(C)c1` [Example 291], it took 28 nM to reach half-maximal inhibition (IC50). This IC50 lies about 4.6-fold lower than the previous one.

As for `Cc1cc(OC[C@@H]2CCN(C(=O)N3CC[C@@H]4OCC(=O)N[C@@H]4C3)C[C@@H]2C)cnc1C(F)(F)F` [Example 231], the 50% inhibitory concentration (IC50) worked out at 5 nM.

`O=C1CO[C@H]2CCN(C(=O)N3CC(Oc4ccc(Cl)c(C5CC5)c4)C3)C[C@H]2N1` [Example 256] displayed a concentration for half-maximal inhibition (IC50) of 11 nM.

`O=C1CO[C@H]2CCN(C(=O)N3CCC(Oc4cc(C(F)(F)F)ccc4F)C3)C[C@H]2N1` (stereo partly shown) [Example 283] displayed a half-maximal inhibitory concentration (IC50) of 179 nM.

For `O=C1CO[C@H]2CCN(C(=O)N3CC(OCc4ccc(S(F)(F)(F)(F)F)cc4F)C3)C[C@H]2N1` [Example 240], the midpoint of inhibition, the IC50, lay at 16 nM.

`O=C1CO[C@H]2CCN(C(=O)N3CCC(Oc4ccc(Cl)c(C(F)(F)F)c4)CC3)C[C@H]2N1` [Example 119]: the IC50 amounted to 14 nM.
